According to the NIST ThermoML archive (doi:10.1016/j.fluid.2008.02.005):

Experiments:
[1] = 101.33 kPa, Liquid
[2] = xn = mol fraction of the nth substance listed; settings: 101 kPa, Liquid

CCCCCCOCCOCCO [2-(2-hexyloxyethoxy)ethanol]
[1]
Settings | mass density [kg/m3]
288.15 K | 924.348
298.15 K | 915.522
308.15 K | 906.642

CCCCCCOCCOCCO [2-(2-hexyloxyethoxy)ethanol] + CCCCCCCO
mass density [kg/m3], [2]
Settings | 288.15 K | 298.15 K | 308.15 K
x1 = 0.1109 | 840.489 | 833.182 | 825.922
x1 = 0.1592 | 846.447 | 839.091 | 831.645
x1 = 0.1986 | 851.154 | 843.756 | 836.178
x1 = 0.258 | 857.994 | 850.491 | 842.797
x1 = 0.3094 | 863.644 | 856.08 | 848.254
x1 = 0.3515 | 868.149 | 860.468 | 852.588
x1 = 0.3927 | 872.418 | 864.636 | 856.716
x1 = 0.4463 | 877.834 | 869.912 | 861.89
x1 = 0.5084 | 883.872 | 875.796 | 867.692
x1 = 0.5574 | 888.492 | 880.349 | 872.159
x1 = 0.6167 | 893.921 | 885.645 | 877.389
x1 = 0.6511 | 896.97 | 888.674 | 880.331
x1 = 0.7101 | 902.042 | 893.703 | 885.279
x1 = 0.7491 | 905.269 | 896.923 | 888.446
x1 = 0.8085 | 910.029 | 901.658 | 893.122
x1 = 0.8543 | 913.588 | 905.198 | 896.613
x1 = 0.9087 | 917.663 | 909.197 | 900.531
x1 = 0.9487 | 920.583 | 912.028 | 903.307

CCCCCCOCCOCCO [2-(2-hexyloxyethoxy)ethanol] + CCCCCO
mass density [kg/m3], [2]
Settings | 288.15 K | 298.15 K | 308.15 K
x1 = 0.1112 | 837.545 | 830.059 | 822.319
x1 = 0.1587 | 846.35 | 838.122 | 830.389
x1 = 0.2096 | 855.128 | 846.145 | 838.566
x1 = 0.2584 | 862.625 | 853.171 | 845.659
x1 = 0.3012 | 868.44 | 858.72 | 851.35
x1 = 0.3558 | 874.88 | 865.166 | 857.77
x1 = 0.4022 | 879.672 | 870.098 | 862.642
x1 = 0.4506 | 884.17 | 874.849 | 867.245
x1 = 0.5069 | 889.049 | 880.057 | 872.125
x1 = 0.541 | 891.897 | 883.079 | 874.951
x1 = 0.5971 | 896.445 | 887.853 | 879.382
x1 = 0.6456 | 900.337 | 891.848 | 883.098
x1 = 0.6998 | 904.59 | 896.131 | 887.198
x1 = 0.747 | 908.177 | 899.702 | 890.721
x1 = 0.8052 | 912.354 | 903.888 | 894.96
x1 = 0.8501 | 915.348 | 906.892 | 898.056
x1 = 0.9008 | 918.511 | 910.007 | 901.375
x1 = 0.9459 | 921.161 | 912.609 | 903.991
